In brackets after ≈: the same amount, converted by molar mass. Like-named read-outs stand apart in the source and are kept apart here.
Columns and labels:
[1] = test system: C. albicans ATCC MYA-2310(S) (strain E); experiment: MIC determination, in vitro antifungal assay (CLSI M27-A3); format: cell-based, Candida albicans; conditions: MIC-0, 48 h at 35° C.
Summary of the method: (§1)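 Complete-inhibition MIC (MIC-0) endpoint. Yeast inoculum of 2-4×10^3 CFU/mL in pH 7.0 MOPS-buffered RPMI 1640, incubated at 35° C following CLSI M27-A3 with modifications; final DMSO below 1.25%.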

[2] = test system: C. albicans ATCC 64124(R) (strain B); experiment: as above; format: cell-based, Candida albicans; conditions: strain B, MIC-0, 48 h at 35° C.
Summary of the method: as §1

[3] = test system: C. albicans ATCC 90819(R) (strain D); experiment: as above; format: cell-based, Candida albicans; conditions: MIC-0, 48 h at 35° C.
Summary of the method: as §1

[4] = test system: C. albicans ATCC MYA-1237(R) (strain F); experiment: as above; format: cell-based, Candida albicans; conditions: MIC-0, 48 h at 35° C.
Summary of the method: as §1

[5] = test system: murine red blood cells (mRBCs); conditions: for Percentage of hemolysis (±SDEV): mouse, 60 min
Summary of the method: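 mRBCs washed four times in PBS, resuspended at 10^7 mRBC/mL, exposed to test bishydrazones at 37° C for 60 min. ddH2O as blank, 1% v/v Triton X-100 as positive control; % hemolysis = (sample − blank absorbance)×100/positive-control absorbance.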

[6] = test system: Candida glabrata ATCC 2001 (strain H); experiment: MIC determination, in vitro antifungal assay (CLSI M27-A3); format: cell-based; conditions: MIC-0, 48 h at 35° C.
Summary of the method: (§2)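 Yeast inoculum (2-4×10^3 CFU/mL, from OD600 0.12 suspension of overnight YPD culture) tested in MOPS-buffered (0.165 M) RPMI 1640, pH 7.0, at 35 °C. Method follows CLSI M27-A3 broth microdilution, with DMSO kept below 1.25% final.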

[7] = test system: Candida krusei ATCC 6258 (strain I); experiment: as above; format: cell-based; conditions: MIC-0, 48 h at 35° C.
Summary of the method: as §2

[8] = test system: C. albicans ATCC MYA-2876(S) (strain C); experiment: as above; format: cell-based, Candida albicans; conditions: MIC-0, 48 h at 35° C.
Summary of the method: as §2

[9] = test system: C. albicans ATCC MYA-1003(R) (strain G); experiment: as above; format: cell-based, Candida albicans; conditions: MIC-0, 48 h at 35° C.
Summary of the method: as §2

[10] = Candida albicans, 48 h, read-out: MIC
[11] = Candida albicans, ATCC64124, 48 h, read-out: MIC
[12] = Candida albicans, ATCC90819, 48 h, read-out: MIC
[13] = Nakaseomyces glabratus, ATCC2001, 48 h, read-out: MIC
[14] = Pichia kudriavzevii, ATCC6258, 48 h, read-out: MIC

| SMILES | MIC [1, 10] [µg/mL] | MIC [2, 11] [µg/mL] | MIC [3, 12] [µg/mL] | MIC [4, 10] [µg/mL] | MIC [4] [µg/mL] | hemolytic activity (in words) [5] | Percentage of hemolysis (±SDEV) ([5]; 0.975 μg/mL) [%] | Percentage of hemolysis (±SDEV) ([5]; 1.95 μg/mL) [%] | Percentage of hemolysis (±SDEV) ([5]; 3.9 μg/mL) [%] | Percentage of hemolysis (±SDEV) ([5]; 7.8 μg/mL) [%] | Percentage of hemolysis (±SDEV) ([5]; 15.6 μg/mL) [%] | Percentage of hemolysis (±SDEV) ([5]; 31.3 μg/mL) [%] | MIC [6, 13] [µg/mL] | MIC [7] [µg/mL] | MIC [7, 14] [µg/mL] | MIC [8, 10] [µg/mL] | MIC [8] [µg/mL] | MIC [9, 10] [µg/mL] | MIC [9] [µg/mL] | Percentage of hemolysis (±SDEV) ([5]; 62.5 μg/mL) [%] | also measured |
| --- | --- | --- | --- | --- | --- | --- | --- | --- | --- | --- | --- | --- | --- | --- | --- | --- | --- | --- | --- | --- | --- |
| COc1ccc(N/N=C/c2ccc(-c3ccc(/C=N/Nc4ccc(OC)cc4)cc3)cc2)cc1 [Compound 15b] | 3.9 (≈ 8.66 µM) | 3.9 (≈ 8.66 µM) | 7.8 to 15.6 (≈ 17.3 to 34.6 µM) | 7.8 to 15.6 (≈ 17.3 to 34.6 µM) | 15.6 (≈ 34.6 µM) | lack of hemolytic activity | 1.6 ± 2.3 | 1.9 ± 0.3 | 2.8 ± 0.6 | 4.2 ± 3.1 | 6.7 ± 2.0 | 12.6 ± 4.7 | 7.8 to 15.6 (≈ 17.3 to 34.6 µM) | 7.8 (≈ 17.3 µM) | 7.8 to 15.6 (≈ 17.3 to 34.6 µM) | 7.8 to 15.6 (≈ 17.3 to 34.6 µM) | 7.8 (≈ 17.3 µM) | 7.8 to 15.6 (≈ 17.3 to 34.6 µM) | 7.8 (≈ 17.3 µM) | – | MIC [1]: 3.9 µg/mL (≈ 8.66 µM); MIC [2]: 3.9 µg/mL (≈ 8.66 µM); MIC [3]: 7.8 µg/mL (≈ 17.3 µM); MIC [6]: 7.8 µg/mL (≈ 17.3 µM) |
| COc1ccc(N/N=C/c2ccc(-c3cccc(/C=N/Nc4ccc(OC)cc4)c3)cc2)cc1 [Compound 15a] | – | 15.6 (≈ 34.6 µM) | 1.95 to 3.9 (≈ 4.33 to 8.66 µM) | 1.95 to 3.9 (≈ 4.33 to 8.66 µM) | 3.9 (≈ 8.66 µM) | lack of hemolytic activity | 2.6 ± 3.4 | 4.5 ± 1.7 | 3.0 ± 1.6 | 2.6 ± 2.8 | 7.8 ± 3.3 | 9.6 ± 1.7 | – | 3.9 (≈ 8.66 µM) | 1.95 to 3.9 (≈ 4.33 to 8.66 µM) | 1.95 to 3.9 (≈ 4.33 to 8.66 µM) | 3.9 (≈ 8.66 µM) | – | – | – | MIC [3]: 3.9 µg/mL (≈ 8.66 µM) |
| C(=N\Nc1ccccc1)/c1ccc(-c2cccc(/C=N/Nc3ccccc3)c2)cc1 [Compound 7a] | 31.3 (≈ 80.2 µM) | 31.3 (≈ 80.2 µM) | 31.3 (≈ 80.2 µM) | 31.3 (≈ 80.2 µM) | – | lack of hemolytic activity | 0 | 3.5 ± 3.3 | 1.5 ± 0.9 | 8.5 ± 5.1 | 14.1 ± 0.1 | 16.7 ± 0.9 | > 31.3 | 7.8 (≈ 20 µM) | 7.8 to 15.6 (≈ 20 to 39.9 µM) | 31.3 (≈ 80.2 µM) | – | 1.95 to 3.9 (≈ 4.99 to 9.99 µM) | 3.9 (≈ 9.99 µM) | – | – |
| Fc1ccc(N/N=C/c2ccc(-c3cccc(/C=N/Nc4ccc(F)cc4F)c3)cc2)c(F)c1 [Compound 20a] | 15.6 (≈ 33.7 µM) | 7.8 (≈ 16.9 µM) | 15.6 (≈ 33.7 µM) | 7.8 (≈ 16.9 µM) | – | lack of hemolytic activity | 0 | 4.5 ± 2.3 | 4.2 ± 2.8 | 8.6 ± 1.6 | 14.6 ± 1.6 | 14.6 ± 0.7 | 15.6 (≈ 33.7 µM) | 1.95 (≈ 4.22 µM) | 1.95 to 3.9 (≈ 4.22 to 8.43 µM) | 15.6 (≈ 33.7 µM) | – | 7.8 (≈ 16.9 µM) | – | – | – |
| Fc1ccc(N/N=C/c2ccc(-c3cccc(/C=N/Nc4ccc(F)cc4)c3)cc2)cc1 [Compound 17a] | 7.8 (≈ 18.3 µM) | 15.6 (≈ 36.6 µM) | > 31.3 | 15.6 (≈ 36.6 µM) | – | – | 0 | 6.0 ± 2.1 | 4.3 ± 1.6 | 9.5 ± 3.3 | 9.9 ± 2.1 | 14.4 ± 0.9 | > 31.3 | – | > 31.3 | 7.8 (≈ 18.3 µM) | – | 1.95 to 3.9 (≈ 4.57 to 9.14 µM) | 3.9 (≈ 9.14 µM) | 26.1 ± 11.1 | – |
| Fc1cccc(N/N=C/c2ccc(-c3cccc(/C=N/Nc4cccc(F)c4)c3)cc2)c1 [Compound 12a] | > 31.3 | > 31.3 | 7.8 to 15.6 (≈ 18.3 to 36.6 µM) | 7.8 to 15.6 (≈ 18.3 to 36.6 µM) | 15.6 (≈ 36.6 µM) | lack of hemolytic activity | 4.6 ± 2.5 | 0.6 ± 0.6 | 2.5 ± 2.7 | 7.9 ± 0.1 | – | 32.6 ± 9.6 | > 31.3 | 1.95 (≈ 4.57 µM) | 1.95 to 3.9 (≈ 4.57 to 9.14 µM) | 7.8 to 15.6 (≈ 18.3 to 36.6 µM) | 7.8 (≈ 18.3 µM) | 7.8 to 15.6 (≈ 18.3 to 36.6 µM) | 7.8 (≈ 18.3 µM) | 39.5 ± 12.1 | MIC [3]: 15.6 µg/mL (≈ 36.6 µM) |
| Fc1ccc(N/N=C/c2ccc(-c3ccc(/C=N/Nc4ccc(F)cc4)cc3)cc2)cc1 [Compound 17b] | 7.8 to 15.6 (≈ 18.3 to 36.6 µM) | 7.8 to 15.6 (≈ 18.3 to 36.6 µM) | 31.3 (≈ 73.4 µM) | 7.8 to 15.6 (≈ 18.3 to 36.6 µM) | 7.8 (≈ 18.3 µM) | – | 0 | 1.1 ± 1.5 | 0.7 ± 1.1 | 3.2 ± 3.0 | 9.0 ± 8.5 | 9.6 ± 6.7 | 7.8 to 15.6 (≈ 18.3 to 36.6 µM) | 1.95 (≈ 4.57 µM) | 1.95 (≈ 4.57 µM) | 7.8 to 15.6 (≈ 18.3 to 36.6 µM) | 7.8 (≈ 18.3 µM) | 7.8 to 15.6 (≈ 18.3 to 36.6 µM) | 7.8 (≈ 18.3 µM) | 28.3 ± 4.1 | MIC [1]: 15.6 µg/mL (≈ 36.6 µM); MIC [2]: 15.6 µg/mL (≈ 36.6 µM); MIC [6]: 15.6 µg/mL (≈ 36.6 µM) |
| C/C(=N\Nc1ccc(F)cc1)c1ccc(-c2ccc(/C(C)=N/Nc3ccc(F)cc3)cc2)cc1 [Compound 17c, 4,4′-bis((E)-1-(2-(4-fluorophenyl)hydrazono)ethyl)-1,1′-biphenyl] | 1.95 to 3.9 (≈ 4.29 to 8.58 µM) | 1.95 to 3.9 (≈ 4.29 to 8.58 µM) | 7.8 (≈ 17.2 µM) | 7.8 (≈ 17.2 µM) | – | – | 1.4 ± 1.1 | 2.6 ± 0.9 | 2.6 ± 2.7 | 5.9 ± 0.3 | 7.4 ± 1.1 | 9.5 ± 2.2 | 15.6 (≈ 34.3 µM) | 1.95 (≈ 4.29 µM) | 1.95 to 3.9 (≈ 4.29 to 8.58 µM) | 1.95 to 3.9 (≈ 4.29 to 8.58 µM) | 3.9 (≈ 8.58 µM) | 7.8 (≈ 17.2 µM) | – | 26.2 ± 7.7 | MIC [1]: 1.95 µg/mL (≈ 4.29 µM); MIC [2]: 3.9 µg/mL (≈ 8.58 µM) |

From patent US11851391B2, “Antifungal compounds and methods of forming the same” (University of Kentucky Research Foundation, priority 2018, dated 2023)
